Key:
SOS1/KRAS-G12D = SOS1/KRAS-G12D (Homo sapiens (Human), UniProt Q07889); test: SOS1/KRAS-G12D binding inhibition assay (AlphaScreen); conditions: GST-SOS1 and 6*His KRAS-G12D, read-out: KrasG12D/SOS1 binding IC50
Method: Example 22: SOS1/KRAS-G12D Binding Inhibition Assay
SOS1 binding affinity of candidate compounds was measured by monitoring the interaction of SOS1 with KRAS-G12D in the presence of the test compound. Briefly, 5 nM GST tagged SOS1 proteins (final concentration) were pre-incubated with 50 nM 6*His tagged KRAS-G12D proteins (final concentration) in an assay buffer containing 10 mM HEPES, pH 7.4, 150 mM NaCl, 1 mM DTT, 5 mM MgCl2, 0.1% Tween-20, and 0.05% BSA for 30 minutes. The test compounds in 2% DMSO (final concentration) at various concentrations were then added to the reaction mixture and incubated for another 30 minutes at 4° C. 5 ug/ml GSH AlphaScreen donor beads (PerkinElmer, 6765300) and 5 ug/ml nickel chelate (Ni-NTA) AlphaScreen acceptor beads (PerkinElmer, 6760619C) (final concentrations) were then added to the mixture. After an incubation of 2 hours at 4° C., the fluorescent signals were obtained on the EnVision® 2105 Multilabel Plate Reader (PerkinElmer).
Raw AlphaScreen data were converted to a percentage of inhibition (relative to DMSO) using the following equations: • a) For a given test compound concentration X:
Signal (X)=Signal (SOS1 & KRAS-G12D & compound)-Signal (buffer & KRAS-G12D & compound)
Percentage of inhibition at concentration X=[1−Signal (X)/Signal (DMSO)]*100% b)
The IC50 values were determined by nonlinear regression of plots of [inhibitor] vs. percentage of inhibition with variable slope, analyzed using GraphPad Prism 9.

[1] = system: Phospho-ERK1/2 in DLD1 cells; test: Phospho-ERK1/2 expression inhibition in DLD1 cells; assay type: cell-based; conditions: Homo sapiens, DLD-1, 4 hours, read-out: DLD1 pERK IC50
Method: Example 23: Phospho-ERK1/2 Expression Inhibition in DLD1 Cells
DLD1 cells were obtained from American Type Culture Collection (ATCC). DLD1 cells were plated in 96-well plates (VWR #10062-900, or Corning #3904) in 90 uL culture medium at a density of 15,000 cells/well in the RPM11640 growth medium containing 10% FBS and 1% Penicillin Streptomycin, and then incubated at 37° C. overnight. The following day, the test compound was administered to the cells by using 1000×x compound stock solution prepared in DMSO at various concentrations. 1000× compound stock solution was first diluted in culturing medium to 10×, then 10 uL compound medium was added to each well in the cell plates. After administration of the compound, the cells were then incubated at 37° C. for 4 hours. Upon completion, the cells were washed with PBS briefly. 150 uL/well of 4% formaldehyde was added and the plates were incubated at room temperature for 20 mins. The cells were washed with PBS briefly, and permeabilized with 150 uL/well of ice cold 100% methanol for 10 mins. The cells were washed with PBS briefly and blocked with 100 uL/well LI-COR blocking buffer for 1 hr at room temperature with gentle shaking. The cells were incubated overnight at 4° C. with 50 uL primary antibody rabbit anti-Phospho-ERK1/2 (1: 500, Cell Signaling, #4370) diluted in Intercept Blocking Buffer (LI-COR, #927-60001) containing 0.1% Tween 20. The next day, the cells were washed with 200 uL PBS containing 0.1% Tween 20, 5×5 mins at room temperature with gentle shaking, and incubated with 50 uL secondary antibody, IRDye® 800CW Goat anti-Rabbit IgG (LI-COR, #926-32211), 1:1000, in LI-COR blocking buffer with 0.2% Tween 20 for 1 hr at room temperature with gentle shaking. The cells were washed with 200 uL PBS containing 0.1% Tween 20, 5×5 mins at room temperature with gentle shaking. The cells were washed with PBS for 5 mins. 100 uL fresh PBS was added to each well and the plates were imaged on a LI-COR Odyssey CLX plate reader.

K562 cells = test: Cell growth inhibition of K562 cells (CellTiter-Glo); assay type: cell-based; conditions: Homo sapiens, 120 h, 5 days
Method: Example 24: Cell Growth Inhibition of K562 Cells
K562 cells were obtained from American Type Culture Collection (ATCC). For cell growth assay, K562 cells were seeded in 96-well plates at 1000 cells/well in 90 μl of RPM11640 growth medium containing 10% FBS and 1% Penicillin Streptomycin, and then incubated at 37° C. for 1 hour. The test compound was administered to the cells by using 1000× compound stock solution prepared in DMSO at various concentrations. 1000× compound stock solution was first diluted in culturing medium to 10×, then 10 uL compound medium was added to each well in the cell plates. After administration of the compound, the cells were then incubated at 37° C. for 5 days. Upon completion, the plates were equilibrated at room temperature for approximately 10 minutes. 100 ul of CellTiter-Glo® Reagent (Promega) was added to each well. The plates were then incubated at room temperature for 10 minutes and luminescence was recorded by EnSpire plate reader (PerkinElmer).

SOS1/KRAS-G12D, sequence (Q07889 564-1049 limits assumed): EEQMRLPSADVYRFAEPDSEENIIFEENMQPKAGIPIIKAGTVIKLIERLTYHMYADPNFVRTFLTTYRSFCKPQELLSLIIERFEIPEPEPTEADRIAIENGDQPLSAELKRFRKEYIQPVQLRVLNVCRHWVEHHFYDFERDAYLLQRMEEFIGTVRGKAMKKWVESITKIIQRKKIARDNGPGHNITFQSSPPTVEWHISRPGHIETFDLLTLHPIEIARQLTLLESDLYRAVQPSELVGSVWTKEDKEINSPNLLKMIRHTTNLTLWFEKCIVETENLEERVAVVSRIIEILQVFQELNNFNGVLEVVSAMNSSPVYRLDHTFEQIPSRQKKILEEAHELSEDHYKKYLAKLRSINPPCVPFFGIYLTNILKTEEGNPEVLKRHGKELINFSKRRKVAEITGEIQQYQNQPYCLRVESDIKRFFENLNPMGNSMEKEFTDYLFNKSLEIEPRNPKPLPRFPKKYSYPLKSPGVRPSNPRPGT

SMILES | IC50 (SOS1/KRAS-G12D) | IC50 [1] | GI50 (K562 cells)
CC(=O)N1CCN(c2ccc3nccc(N[C@H](C)c4cccc(C(F)(F)F)c4C)c3c2)C[C@@H]1C [Compound 33, 1-((S)-2-methyl-4-(4-(((R)-1-(2-methyl-3-(trifluoromethyl)phenyl)ethyl)amino)quinolin-6-yl)piperazin-1-yl)ethan-1-one] | > 0.1 µM | > 0.5 µM | 0.1 to 0.5 µM
Cc1c([C@@H](C)Nc2ccnc3ccc(N4CCN(c5nccs5)CC4)cc23)cccc1C(F)(F)F [Compound 34, (R)-N-(1-(2-methyl-3-(trifluoromethyl)phenyl)ethyl)-6-(4-(thiazol-2-yl)piperazin-1-yl)quinolin-4-amine] | > 0.1 µM | > 0.5 µM | 0.1 to 0.5 µM
Cc1c([C@@H](C)Nc2ccnc3ccc(N4CCNC(C)(C)C4)cc23)cccc1C(F)(F)F [Compound 35] | 0.01 to 0.1 µM | > 0.5 µM | 0.1 to 0.5 µM
CC(=O)N1CCN(c2ccc3nccc(N[C@H](C)c4cccc(C(F)(F)F)c4C)c3c2)CC1(C)C [Compound 36, (R)-1-(2,2-dimethyl-4-(4-((1-(2-methyl-3-(trifluoromethyl)phenyl)ethyl)amino)quinolin-6-yl)piperazin-1-yl)ethan-1-one] | 0.01 to 0.1 µM | > 0.5 µM | 0.1 to 0.5 µM
CC(=O)N[C@@H]1CCN(c2ccc3nccc(N[C@H](C)c4cccc(C(F)(F)F)c4C)c3c2)C1 [Compound 38, N-((R)-1-(4-(((R)-1-(2-methyl-3-(trifluoromethyl)phenyl)ethyl)amino)quinolin-6-yl)pyrrolidin-3-yl)acetamide] | > 0.1 µM | > 0.5 µM | > 0.5 µM
CC(=O)N[C@H]1CCN(c2ccc3nccc(N[C@H](C)c4cccc(C(F)(F)F)c4C)c3c2)C1 [Compound 39, N-((S)-1-(4-(((R)-1-(2-methyl-3-(trifluoromethyl)phenyl)ethyl)amino)quinolin-6-yl)pyrrolidin-3-yl)acetamide] | > 0.1 µM | > 0.5 µM | > 0.5 µM
CC(=O)N1CCC(O)(c2ccc3nccc(N[C@H](C)c4cccc(C(F)F)c4F)c3c2)CC1 [Compound 40, (R)-1-(4-(4-((1-(3-(difluoromethyl)-2-fluorophenyl)ethyl)amino)quinolin-6-yl)-4-hydroxypiperidin-1-yl)ethan-1-one] | ≤ 0.01 µM | 0.15 to 0.5 µM | ≤ 0.1 µM
CC(=O)N1CCC(F)(c2ccc3nccc(N[C@H](C)c4cccc(C(F)F)c4F)c3c2)CC1 [Compound 41, (R)-1-(4-(4-((1-(3-(difluoromethyl)-2-fluorophenyl)ethyl)amino)quinolin-6-yl)-4-fluoropiperidin-1-yl)ethan-1-one] | ≤ 0.01 µM | 0.15 to 0.5 µM | ≤ 0.1 µM
C[C@@H](Nc1ccnc2ccc(N3CC[C@@H](O)C3)cc12)c1cccc(C(F)F)c1F [Compound 42, (R)-1-(4-(((R)-1-(3-(difluoromethyl)-2-fluorophenyl)ethyl)amino)quinolin-6-yl)pyrrolidin-3-ol] | ≤ 0.01 µM | ≤ 0.15 µM | ≤ 0.1 µM
C[C@@H](Nc1ccnc2ccc(N3CC[C@H](O)C3)cc12)c1cccc(C(F)F)c1F [Compound 43, (S)-1-(4-(((R)-1-(3-(difluoromethyl)-2-fluorophenyl)ethyl)amino)quinolin-6-yl)pyrrolidin-3-ol] | ≤ 0.01 µM | 0.15 to 0.5 µM | 0.1 to 0.5 µM
CN[C@@H]1CCN(c2ccc3nccc(N[C@H](C)c4cccc(C(F)F)c4F)c3c2)C1 [Compound 44, N-((R)-1-(3-(difluoromethyl)-2-fluorophenyl)ethyl)-6-((R)-3-(methylamino)pyrrolidin-1-yl)quinolin-4-amine] | ≤ 0.01 µM | > 0.5 µM | ≤ 0.1 µM
Cc1c([C@@H](C)Nc2ccnc3ccc(N4CCn5c(C)nnc5C4)cc23)cccc1C(F)(F)F [Compound 45, (R)-N-(1-(2-methyl-3-(trifluoromethyl)phenyl)ethyl)-6-(3-methyl-5,6-dihydro-[1,2,4]triazolo[4,3-a]pyrazin-7(8H)-yl)quinolin-4-amine] | 0.01 to 0.1 µM | > 0.5 µM | 0.1 to 0.5 µM
Cc1c([C@@H](C)Nc2ccnc3ccc(N4CCN(C(=O)C(C)C)CC4)cc23)cccc1C(F)(F)F [Compound 46, (R)-2-methyl-1-(4-(4-((1-(2-methyl-3-(trifluoromethyl)phenyl)ethyl)amino)quinolin-6-yl)piperazin-1-yl)propan-1-one] | 0.01 to 0.1 µM | 0.15 to 0.5 µM | 0.1 to 0.5 µM
COc1cc2nccc(N[C@H](C)c3cccc(C(F)(F)F)c3C)c2cc1N1CCN(C(=O)C2COC2)CC1 [Compound 47] | 0.01 to 0.1 µM | > 0.5 µM | 0.1 to 0.5 µM
C[C@@H](Nc1ccnc2ccc(N3CCOCC3)cc12)c1cccc(C(F)F)c1F [Compound 48, (R)-N-(1-(3-(difluoromethyl)-2-fluorophenyl)ethyl)-6-morpholinoquinolin-4-amine] | ≤ 0.01 µM | ≤ 0.15 µM | ≤ 0.1 µM
C[C@@H](Nc1ccnc2ccc(N3CCC(N)CC3)cc12)c1cccc(C(F)F)c1F [Compound 49, (R)-6-(4-aminopiperidin-1-yl)-N-(1-(3-(difluoromethyl)-2-fluorophenyl)ethyl)quinolin-4-amine] | ≤ 0.01 µM | > 0.5 µM | 0.1 to 0.5 µM
Cc1c([C@@H](C)Nc2ccnc3ccc(N4CCN[C@H](C)C4)cc23)cccc1C(F)(F)F [Compound 50, N-((R)-1-(2-methyl-3-(trifluoromethyl)phenyl)ethyl)-6-((R)-3-methylpiperazin-1-yl)quinolin-4-amine] | 0.01 to 0.1 µM | > 0.5 µM | 0.1 to 0.5 µM
CC(=O)N1CCN(c2ccc3nccc(N[C@H](C)c4cccc(C(F)(F)F)c4C)c3c2)C[C@H]1C [Compound 51, 1-((R)-2-methyl-4-(4-(((R)-1-(2-methyl-3-(trifluoromethyl)phenyl)ethyl)amino)quinolin-6-yl)piperazin-1-yl)ethan-1-one] | 0.01 to 0.1 µM | > 0.5 µM | 0.1 to 0.5 µM
Cc1c([C@@H](C)Nc2ccnc3ccc(N4CCN(CC(F)(F)F)CC4)cc23)cccc1C(F)(F)F [Compound 52, (R)-N-(1-(2-methyl-3-(trifluoromethyl)phenyl)ethyl)-6-(4-(2,2,2-trifluoroethyl)piperazin-1-yl)quinolin-4-amine] | > 0.1 µM | > 0.5 µM | > 0.5 µM
Cc1c([C@@H](C)Nc2ccnc3ccc(N4CCN(C(=O)C5CCCO5)CC4)cc23)cccc1C(F)(F)F (stereo partly drawn) [Compound 53, (4-(4-(((R)-1-(2-methyl-3-(trifluoromethyl)phenyl)ethyl)amino)quinolin-6-yl)piperazin-1-yl)(tetrahydrofuran-2-yl)methanone] | 0.01 to 0.1 µM | > 0.5 µM | 0.1 to 0.5 µM

— patent publication US20240208909A1, “SUBSTITUTED QUINOLINE DERIVATIVES HAVING SOS1 INHIBITION ACTIVITIES AND USES THEREOF” (Accutar Biotechnology Inc., priority 2022, published 2024)
